Values quoted from earlier work, collected in patent US5908764A, “Methods and compositions for increasing production of erythromycin” (Solidago AG, priority 1997, dated 1999).

Columns and labels:
[1] = molecular target: horse heart myoglobin (Equus caballus, UniProt P68082); details: oxygen affinity; Wittenberg et al., 1985
[2] = molecular target: Vitreoscilla hemoglobin (VHb) (Vitreoscilla stercoraria, UniProt P04252); details: koff rate for oxygen; Orii and Webster, 1986

Chain of horse heart myoglobin (P68082 whole entry): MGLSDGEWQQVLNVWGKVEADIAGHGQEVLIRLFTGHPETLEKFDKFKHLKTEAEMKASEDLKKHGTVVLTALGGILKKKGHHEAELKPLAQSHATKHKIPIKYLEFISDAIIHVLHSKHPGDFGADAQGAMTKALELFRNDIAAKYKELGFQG

In the case of O=O [oxygen], the Kd [1] is given as 790 nM and the koff [2] is given as 5600 s⁻¹.
